# US7615554B2, “Erastin and erastin binding proteins, and uses thereof” (Prolexys Pharmaceuticals, Inc., priority 2005, dated 2009)
# Experiments:
# [1] = system: BJ-TERT/LT/ST/RAS^V12 cells; assay: Western blot for active caspase-3; type: cell-based, human
# Experimental: BJ-TERT/LT/ST/RAS^V12 cells were seeded prior to the experiment at 5×10^5 cells in 60 mm dishes. The cells were treated with 5 μg/ml erastin (9 μM) for 2, 4, 6, 8 or 10 hours. One dish was maintained for camptothecin treatment (0.4 μlg/ml for 24 h) as a positive control. Cells were lysed after each time point in lysis buffer (50 mM HEPES KOH pH 7.4, […], 2 mM EDTA, 0.5% Triton X-100, 1.5 mM Na3VO4, 50 mM NaF, 10 mM sodium pyrophosphate, 10 mM sodium beta-glycerophosphate and protease inhibitor tablet (Roche)). Protein content was quantified using a Biorad protein assay reagent. Equal amounts of protein were resolved on 16% SDS-polyacrylamide gel. The electrophoresed proteins were transblotted onto a PVDF membrane, blocked with 5% milk and incubated with anti-active caspase-3 polyclonal antibody (BD Pharmingen) at 1:1500 dilution overnight at 4° C. The membrane was then incubated in anti-rabbit-HRP (Santa Cruz Biotechnology) at 1:3000 dilution for 1 hour and developed with an enhanced chemiluminescence mixture (NEN life science, Renaissance). To test for equivalent loading in each lane, blots were stripped, blocked, and probed with an anti-eIF-4E antibody (BD Transduction laboratories) at 1:1000 dilution.
# [2] = system: BJ-TERT/LT/ST/RAS^V12 cells; assay: Nuclear morphology assay; type: cell-based, human
# Text: Applicants sought to characterize the type of cell death induced by CPT and erastin in tumorigenic BJ-TERT/LT/ST/RAS^V12 cells. […] To determine whether erastin or CPT induces apoptosis in their system, Applicants monitored the nuclear morphology of CPT- and erastin-treated tumorigenic cells using fluorescence microscopy. […] Since nuclear morphological change is required of apoptotic cells, Applicants conclude that cell death induced by erastin is non-apoptotic. […] Additionally, nuclei remained intact in erastin-treated tumor cells (FIG. 9).
# 200,000 tumorigenic BJ-TERT/LT/ST/RAS^V12 cells were seeded in 2 mL on glass coverslips in each well of a six-well dish, treated with nothing (NT), 9 μM erastin or 1.1 μM camptothecin (CPT) in growth medium for 18 hours while incubating at 37° C. with 5% CO2. Nuclei were stained with 25 μg/mL Hoechst 33342 (Molecular Probes) and viewed using an oil immersion 100× objective on a fluorescence microscope.
# engineered cell lines = assay: Selectivity across the engineered cell lines (calcein AM IC50 ratios); type: cell-based, human; settings: from selectivity ratio for each subsequent pair of cell lines in a series
# Experimental: To calculate this selectivity score between two cell lines, the IC50 for a compound in one cell line was divided by the IC50 for the same compound in a second cell line. […] The “tumor selectivity score” was calculated for each compound, by dividing the IC50 value for the compound in the parental, primary BJ cells by the IC50 value for the compound in engineered BJ-TERTALT/ST/RAS^V12 cells, containing all four genetic elements required to create tumorigenic cells (Table 1).
# Applicants sought to determine the genetic basis of selectivity for each compound. That is, for each compound, they attempted to define the gene or combination of genes responsible for rendering cells sensitive to the compound (Table 1).
# The IC50 in primary BJ cells was divided by the IC50 in BJ-TERT/LT/ST/RAS^V12 tumorigenic cells to obtain a tumor selectivity ratio for each compound. The compound selectivity for each genetic element was determined by calculating the selectivity ratio for each subsequent pair of cell lines in a series.
# TOP1 = assay: Western blot for TOP1 expression in BJ primary cells; type: cell-based, human
# Text: (A-C) Western blot of lysates from BJ, BJ-TERT, BJ-TERT/LT/ST, BJ-TERT/LT/ST/RAS^V12, BJ-TERT/LT/RAS^V12 and BJ-TERT/LT/RAS^V12/ST cells with an antibody directed against topoisomerase II (A) or TOPI (B, C). In panel (C), cells were transfected with a siRNA directed against TOPI, lamic A/C or with a control double strand DNA duplex of the same length (TOPI dsDNA). In each case, the blot was probed with an antibody against eIF-4E to identify differences in the amount of protein loaded. The relative amount is quantitated below each band. (D) A TOPI siRNA prevents cell death caused by camptothecin in engineered tumor cells. Cell number was determined after transfection with a siRNA directed against TOPI and treatment with the indicated concentrations of camptothecin. (E) Okadaic acid, an inhibitor of PP2A and other cellular phosphatases, sensitizes primary human cells to camptothecin. BJ primary cells were treated simultaneously with the indicated concentrations of both camptothecin and okadaic acid and the effect on calcein AM viability staining was determined. […] BJ primary cells were treated with the indicated concentrations of okadaic acid and the expression level of TOPI was determined by western blot. The relative amount is quantitated below each band. […]
# BJ primary cells [3] = assay: Sensitization of BJ primary cells by co-treatment (calcein AM viability); type: cell-based, human
# Text: (A-C) Western blot of lysates from BJ, BJ-TERT, BJ-TERT/LT/ST, BJ-TERT/LT/ST/RAS^V12, BJ-TERT/LT/RAS^V12 and BJ-TERT/LT/RAS^V12/ST cells with an antibody directed against topoisomerase II (A) or TOPI (B, C). In panel (C), cells were transfected with a siRNA directed against TOPI, lamic A/C or with a control double strand DNA duplex of the same length (TOPI dsDNA). In each case, the blot was probed with an antibody against eIF-4E to identify differences in the amount of protein loaded. The relative amount is quantitated below each band. (D) A TOPI siRNA prevents cell death caused by camptothecin in engineered tumor cells. Cell number was determined after transfection with a siRNA directed against TOPI and treatment with the indicated concentrations of camptothecin. (E) Okadaic acid, an inhibitor of PP2A and other cellular phosphatases, sensitizes primary human cells to camptothecin. BJ primary cells were treated simultaneously with the indicated concentrations of both camptothecin and okadaic acid and the effect on calcein AM viability staining was determined. […] BJ primary cells were treated with the indicated concentrations of okadaic acid and the expression level of TOPI was determined by western blot. The relative amount is quantitated below each band.
# The compounds in group (iii) are camptothecin (CPT) and a novel compound from a combinatorial library, which Applicants have named erastin, for eradicator of RAS and ST-expressing cells (FIG. 2). Efficient CPT-induced and erastin-induced cell death requires the presence of both ST and RAS^V12 (FIGS. 3 and 4 and Table 1). Although CPT and erastin have a similar genetic basis of selectivity, they have distinct mechanisms of action. CPT is partially active in cells lacking RB function (via expression of E7), whereas erastin is not, and CPT requires two days to cause death in BJ-TERT/LT/ST/RAS^V12 cells, while erastin is 100% effective within 18 hours (FIGS. 3 and 4). […]
# [4] = system: tumor cells versus normal cells; assay: Erastin analogs tested for activity and selectivity in tumor cells versus normal cells; type: cell-based
# Text: Applicants additionally tested 135 analogs of erastin for activity and selectivity in tumor cells versus normal cells. […] This compound was named erastin B (see FIG. 8). In certain embodiments of the invention, the invention relates to the compound, erastin.
# Applicants additionally tested other analogs of erastin for activity and selectivity in tumor cells versus normal cells. […] This compound was named erastin B (see FIG. 8). BJELR cells are BJ-TERT/LT/ST/RAS^V12 cells, and BJEH are BJ-TERT cells.
# BJ-TERT/LT/ST cells = assay: Calcein AM viability assay, BJ-TERT/LT/ST cells; type: cell-based, human; settings: 16-point two-fold dilution
# Experimental: (§1) Described here is work carried out to identify compounds with increased potency or activity in the presence of hTERT, LT, ST, E6, E7 or RAS^V12. Although the work described herein made use of hTERT, LT, ST, E6, E7 and RAS^V12 as transforming genes, future studies can make use of a wide variety of cancer-associated alleles using this methodology in order to define the signaling networks that involve many oncogenes and tumor suppressors. […] Cell viability was measured using the dye calcein acetoxymethyl ester (calcein AM) (Wang et al., 1993, Hum. Immunol. 37, 264-270), which is a non-fluorescent compound that freely diffuses into cells. […]
# (§2) Calcein acetoxylmethyl ester (AM) is a cell membrane-permeable, non-fluorescent compound that is cleaved by intracellular esterases to form the anionic, cell-impermeable, fluorescent compound calcein. […] Total fluorescence intensity in each well was recorded on a Packard Fusion platereader, and converted to a percent inhibition of signal by subtracting the instrument background and dividing by the average signal obtained when cells were not treated with any compound. […]
# (§3) Mean RFU (relative fluorescence units) for untreated cells was calculated by averaging columns 1, 2, and 23 (wells with cells but lacking compounds). The calcein background was calculated by averaging column 24 (wells with calcein, but lacking cells). […]
# TIP5-TERT/E6E7/ST cells = assay: Calcein AM viability assay, TIP5-TERT/E6E7/ST cells; type: cell-based, human; settings: 16-point two-fold dilution
# Experimental: as §1, §2, §3
# [5] = system: TIP5-TERT/E6E7/ST/Ras^v12 cells; assay: Calcein AM viability assay, TIP5-TERT/E6E7/ST/Ras^v12 cells; type: cell-based, human; settings: 16-point two-fold dilution
# Experimental: as §1, §2, §3
# [6] = system: TIP5-TERT/LT/ST/Ras^v12 cells; assay: Calcein AM viability assay, TIP5-TERT/LT/ST/Ras^v12 cells; type: cell-based, human; settings: 16-point two-fold dilution
# Experimental: as §1, §2, §3
# TIP5-TERT cells = assay: Calcein AM viability assay, TIP5-TERT cells; type: cell-based, human; settings: 16-point two-fold dilution
# Experimental: as §1, §2, §3
# TIP5-TERT/E6E7 cells = assay: Calcein AM viability assay, TIP5-TERT/E6E7 cells; type: cell-based, human; settings: 16-point two-fold dilution
# Experimental: as §1, §2, §3
# [7] = system: BJ-TERT/LT/ST/RAS^V12 tumorigenic cells; assay: Calcein AM viability assay, BJ-TERT/LT/ST/RAS^V12 cells; type: cell-based, human; settings: BJ-TERT/LT/ST/Ras^v12; 16-point two-fold dilution
# Text: as §1, with “suppressors. Engineered cell lines with these genetic elements were used to screen 23,550 compounds, including 20,000 compounds from a combinatorial library, 1,990 compounds from the National Cancer Institute diversity collection, and 1,540 biologically active known compounds that were selected and purchased by Applicant and formatted into a screenable collection.” for “suppressors.”
# as §2
# as §3, with “cells). Percentage inhibition of each well was calculated as [1−(RFU−calcein control)/(untreated cell−calcein control)*100].” for “cells).”
# BJ primary cells [8] = assay: Calcein AM viability assay, BJ cells; type: cell-based, human; settings: 16-point two-fold dilution
# Experimental: as §1, §2, §3
# [9] = system: BJ-TERT/LT/RAS^V12/ST cells; assay: Calcein AM viability assay, BJ-TERT/LT/RAS^V12/ST cells; type: cell-based, human; settings: 16-point two-fold dilution
# Experimental: as §1, §2, §3
# TIP5-TERT/LT cells = assay: Calcein AM viability assay, TIP5-TERT/LT cells; type: cell-based, human; settings: 16-point two-fold dilution
# Experimental: as §1, §2, §3
molecule,measurement,setting,value
CC[C@@]1(O)C(=O)OCc2c1cc1n(c2=O)Cc2cc3ccccc3nc2-1 [Camptothecin],"cleaved, active caspase 3",[1],"appearance of cleaved, active caspase 3"
same,nuclear morphology by fluorescence microscopy,"[2]; 9 μM erastin or 1.1 μM camptothecin, 18 hours",karyorhexis and margination of chromatin were clearly visible
same,fragmented nuclei,[2]; BJ-TERT/LT/ST/RAS^V12 cells,10-20 % of total nuclei
same,Genetic basis of Selectivity,engineered cell lines,RAS^v12/PP2A/RB
C=C1[C@@H](O)[C@@H]2O[C@]3(CC[C@H](/C=C/[C@@H](C)[C@@H]4CC(C)=C[C@@]5(O[C@H](C[C@@](C)(O)C(=O)O)CC[C@H]5O)O4)O3)CC[C@H]2O[C@@H]1[C@@H](O)C[C@H](C)[C@H]1O[C@@]2(CCCCO2)CC[C@H]1C [okadaic acid],expression level of TOP1 by western blot,TOP1,stimulates expression of TOP1
same,sensitization to camptothecin,"BJ primary cells [3]; BJ (or BJ-TERT) cells, simultaneous treatment with camptothecin",renders BJ cells sensitive to camptothecin
same,sensitization to erastin,BJ primary cells [3]; BJ or BJ-TERT cells,does not render BJ or BJ-TERT cells sensitive to erastin
erastin B,activity and selectivity of erastin analogs/derivatives,[4],"active and selective, but less potent than erastin"
Cc1c2ccccc2c(CSC(=N)N)c2ccccc12.Cl [NSC146109],concentration required to achieve 50% inhibition of calcein AM staining (IC50),BJ-TERT/LT/ST cells,2.5 µg/mL
same,concentration required to achieve 50% inhibition of calcein AM staining (IC50),TIP5-TERT/E6E7/ST cells,2.5 µg/mL
same,concentration required to achieve 50% inhibition of calcein AM staining (IC50),[5],2.5 µg/mL
same,concentration required to achieve 50% inhibition of calcein AM staining (IC50),[6],2.5 µg/mL
same,concentration required to achieve 50% inhibition of calcein AM staining (IC50),TIP5-TERT cells,>5 µg/mL
same,concentration required to achieve 50% inhibition of calcein AM staining (IC50),TIP5-TERT/E6E7 cells,2.5 µg/mL
same,concentration required to achieve 50% inhibition of calcein AM staining (IC50),[7],2.5 µg/mL
same,concentration required to achieve 50% inhibition of calcein AM staining (IC50),BJ primary cells [8],>5 µg/mL
same,concentration required to achieve 50% inhibition of calcein AM staining (IC50),[9],2.5 µg/mL
same,Genetic basis of Selectivity,engineered cell lines,non-specific
same,concentration required to achieve 50% inhibition of calcein AM staining (IC50),TIP5-TERT/LT cells,>5 µg/mL
